Columns and labels:
Parameters in all cases: scale not given: the % may be the effect or the level left
[1] = target: T1, SNF-related serine/threonine-protein kinase (Homo sapiens) (UniProt Q9NRH2); experiment: Inhibition of human SNRK assessed as enzyme activity at 1 uM using myelin basic protein as substrate preincubated for 20 mins followed by [gamma-33P]-ATP addition and measured after 120 mins by radiometric Hot-SpotSM Kinase assay relative to control
T1 sequence (whole entry): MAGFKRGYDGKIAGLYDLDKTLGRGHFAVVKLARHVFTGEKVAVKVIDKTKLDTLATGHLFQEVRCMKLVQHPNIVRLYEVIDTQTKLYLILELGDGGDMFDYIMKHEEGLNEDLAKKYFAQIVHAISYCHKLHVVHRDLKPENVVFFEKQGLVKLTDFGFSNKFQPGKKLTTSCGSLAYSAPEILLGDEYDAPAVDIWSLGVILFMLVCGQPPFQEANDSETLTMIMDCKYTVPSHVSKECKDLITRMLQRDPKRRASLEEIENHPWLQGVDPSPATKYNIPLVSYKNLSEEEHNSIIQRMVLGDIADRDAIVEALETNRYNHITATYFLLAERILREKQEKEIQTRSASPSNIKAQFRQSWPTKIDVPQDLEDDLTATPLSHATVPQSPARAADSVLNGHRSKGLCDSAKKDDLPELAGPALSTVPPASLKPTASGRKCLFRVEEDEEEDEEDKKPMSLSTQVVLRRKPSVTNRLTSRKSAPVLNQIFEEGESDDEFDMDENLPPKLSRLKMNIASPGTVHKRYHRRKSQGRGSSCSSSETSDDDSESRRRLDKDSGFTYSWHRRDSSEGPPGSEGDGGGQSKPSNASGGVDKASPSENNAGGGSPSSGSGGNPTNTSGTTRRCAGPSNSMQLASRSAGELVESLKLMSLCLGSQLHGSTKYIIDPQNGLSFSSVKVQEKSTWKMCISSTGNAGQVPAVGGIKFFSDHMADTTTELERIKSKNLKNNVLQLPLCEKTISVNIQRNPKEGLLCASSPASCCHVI

[2] = target: T2, Protein kinase C iota type (Homo sapiens) (UniProt P41743); experiment: Inhibition of human PKCiota assessed as enzyme activity at 1 uM using ERMRPRKRQGSVRRRV as substrate preincubated for 20 mins followed by [gamma-33P]-ATP addition and measured after 120 mins by radiometric Hot-SpotSM Kinase assay relative to control
T2 sequence (whole entry): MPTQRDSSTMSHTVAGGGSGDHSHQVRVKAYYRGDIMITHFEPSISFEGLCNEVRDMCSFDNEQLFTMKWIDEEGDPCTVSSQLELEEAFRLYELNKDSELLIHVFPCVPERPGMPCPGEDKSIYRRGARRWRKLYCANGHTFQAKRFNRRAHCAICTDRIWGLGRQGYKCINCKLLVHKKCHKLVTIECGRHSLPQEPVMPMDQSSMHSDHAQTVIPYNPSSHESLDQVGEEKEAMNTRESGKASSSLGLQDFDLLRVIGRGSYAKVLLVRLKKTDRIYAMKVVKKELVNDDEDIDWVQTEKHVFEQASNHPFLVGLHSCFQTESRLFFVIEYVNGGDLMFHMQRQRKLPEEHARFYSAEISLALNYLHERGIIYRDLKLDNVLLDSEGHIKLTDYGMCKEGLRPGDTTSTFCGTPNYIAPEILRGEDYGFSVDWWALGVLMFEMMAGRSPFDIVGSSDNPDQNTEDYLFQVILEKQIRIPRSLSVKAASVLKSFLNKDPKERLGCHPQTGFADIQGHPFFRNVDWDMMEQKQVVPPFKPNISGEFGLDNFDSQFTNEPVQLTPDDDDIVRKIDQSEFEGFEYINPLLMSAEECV

[3] = target: T3, Ephrin type-A receptor 1 (Homo sapiens) (UniProt P21709); experiment: Inhibition of human EPHA1 assessed as enzyme activity at 1 uM using poly[Glu:Tyr] (4:1) as substrate preincubated for 20 mins followed by [gamma-33P]-ATP addition and measured after 120 mins by radiometric Hot-SpotSM Kinase assay relative to control
T3 sequence (whole entry): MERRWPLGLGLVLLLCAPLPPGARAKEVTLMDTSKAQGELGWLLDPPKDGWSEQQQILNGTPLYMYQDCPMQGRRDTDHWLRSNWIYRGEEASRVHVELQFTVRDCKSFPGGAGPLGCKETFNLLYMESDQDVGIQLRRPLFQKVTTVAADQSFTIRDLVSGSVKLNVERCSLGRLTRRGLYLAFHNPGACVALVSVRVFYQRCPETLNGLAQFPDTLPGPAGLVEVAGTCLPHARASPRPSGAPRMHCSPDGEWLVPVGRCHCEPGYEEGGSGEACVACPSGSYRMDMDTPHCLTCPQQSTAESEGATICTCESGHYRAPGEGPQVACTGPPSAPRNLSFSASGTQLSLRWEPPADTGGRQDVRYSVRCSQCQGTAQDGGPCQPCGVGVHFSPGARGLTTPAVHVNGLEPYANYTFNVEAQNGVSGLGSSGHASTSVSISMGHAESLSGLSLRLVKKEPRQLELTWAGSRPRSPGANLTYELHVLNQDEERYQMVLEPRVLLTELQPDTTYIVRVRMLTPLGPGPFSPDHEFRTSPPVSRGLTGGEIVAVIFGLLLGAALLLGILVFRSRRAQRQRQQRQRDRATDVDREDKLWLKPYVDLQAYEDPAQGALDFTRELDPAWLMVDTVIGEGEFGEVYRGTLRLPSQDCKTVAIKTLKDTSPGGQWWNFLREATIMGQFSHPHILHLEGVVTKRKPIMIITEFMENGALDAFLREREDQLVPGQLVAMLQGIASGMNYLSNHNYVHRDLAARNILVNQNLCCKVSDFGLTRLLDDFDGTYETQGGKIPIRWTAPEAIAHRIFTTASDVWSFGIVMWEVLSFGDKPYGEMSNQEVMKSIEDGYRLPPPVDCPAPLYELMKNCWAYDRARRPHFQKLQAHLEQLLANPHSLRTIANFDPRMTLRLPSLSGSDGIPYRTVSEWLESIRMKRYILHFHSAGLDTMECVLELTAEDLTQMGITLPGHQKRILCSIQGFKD

[4] = target: Serine/threonine-protein kinase 10 (Homo sapiens) (UniProt O94804); experiment: Inhibition of human LOK/STK10 assessed as enzyme activity at 1 uM using RLGRDKYKTLRQIRQ as substrate preincubated for 20 mins followed by [gamma-33P]-ATP addition and measured after 120 mins by radiometric Hot-SpotSM Kinase assay relative to control
Serine/threonine-protein kinase 10 (Homo sapiens), sequence (O94804 whole entry, looked up): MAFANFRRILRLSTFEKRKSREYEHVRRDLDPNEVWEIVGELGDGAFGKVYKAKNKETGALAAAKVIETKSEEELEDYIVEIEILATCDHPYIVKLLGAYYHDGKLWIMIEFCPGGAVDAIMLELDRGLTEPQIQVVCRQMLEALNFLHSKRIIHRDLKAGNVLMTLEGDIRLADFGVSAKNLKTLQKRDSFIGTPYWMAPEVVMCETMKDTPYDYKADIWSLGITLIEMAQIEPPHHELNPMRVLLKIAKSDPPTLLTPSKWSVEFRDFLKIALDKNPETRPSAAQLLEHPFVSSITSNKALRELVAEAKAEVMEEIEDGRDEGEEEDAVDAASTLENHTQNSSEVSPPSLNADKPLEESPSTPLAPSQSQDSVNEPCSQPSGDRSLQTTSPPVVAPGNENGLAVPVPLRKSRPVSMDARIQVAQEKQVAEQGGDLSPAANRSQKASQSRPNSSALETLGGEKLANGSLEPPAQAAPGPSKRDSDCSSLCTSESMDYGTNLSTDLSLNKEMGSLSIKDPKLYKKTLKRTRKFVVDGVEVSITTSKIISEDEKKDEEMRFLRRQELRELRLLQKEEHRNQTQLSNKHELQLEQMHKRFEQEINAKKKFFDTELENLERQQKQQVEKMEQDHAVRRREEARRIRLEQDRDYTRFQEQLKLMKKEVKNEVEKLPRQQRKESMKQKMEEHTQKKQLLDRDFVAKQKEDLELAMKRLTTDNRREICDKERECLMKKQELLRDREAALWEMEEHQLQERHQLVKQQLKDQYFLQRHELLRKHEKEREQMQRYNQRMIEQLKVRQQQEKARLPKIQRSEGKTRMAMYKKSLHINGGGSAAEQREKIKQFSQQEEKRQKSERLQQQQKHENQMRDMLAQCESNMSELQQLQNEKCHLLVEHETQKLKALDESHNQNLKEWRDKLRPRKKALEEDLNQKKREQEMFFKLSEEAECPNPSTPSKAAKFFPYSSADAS

| Structure (SMILES) | Activity [1] | Activity [2] | Activity [3] | Activity [4] |
| --- | --- | --- | --- | --- |
| CC[C@H](Nc1ncnc2[nH]cnc12)c1nc2cccc(F)c2c(=O)n1-c1ccccc1 | 102% | 94% | 91.4% | 94.4% |
| CC(C)Oc1ccc(-c2nn([C@@H](C)c3oc4ccc(F)cc4c(=O)c3-c3cccc(F)c3)c3ncnc(N)c23)cc1F [UMBRALISIB] | 102% | 95.7% | 96.4% | 99% |
| C[C@H](Nc1ncnc2nc[nH]c12)c1cc2cccc(Cl)c2c(=O)n1-c1ccccc1 | 96.6% | 98.2% | 95.2% | 94.4% |

Reference: ChEMBL document CHEMBL5715954, “Silencing c-Myc translation as a therapeutic strategy through targeting PI3Kδ and CK1ε in hematological malignancies” (Blood, 2017)
